What was measured:
Assay type in all cases: in vivo, human
[1] = tested on: patient with mixed cerebral palsy, epilepsy, constipation, mental retardation; assay: Clinical course, Case 4; conditions: with baclofen, before turmeric oil
From the text: Patient. They were the child of non-consanguineous parents, born of a twin pregnancy by cesarean section at 30 weeks' gestation. The patient had multiple complications in their neonatal period with prolonged mechanical ventilation, including neuro-infection and neonatal seizures.
Central hypotonia and peripheral hypertonia, dystonia and dyskinesia, ROT++++/++, bilateral plantar flexor reflex were present.
No advances regarding […] neurological condition were identified. The pharmacological therapy included baclofen to improve muscle tone and levetiracetam to control seizures.
Scoliosis, retractions, and joint deformities were still visible. Dystonias and dyskinesias were persistent.
In the subsequent 7.5 years, the patient had epileptic seizures of irregular onset and insufficient advances in their motor development. Administration of turmeric oil began with a dose of 27 mg per day.

[2] = tested on: patient with executive functions impairment, epilepsy, mental retardation, attention deficit; assay: Clinical course, Case 1; conditions: before turmeric oil
Experimental: […], due to their academic failure and their refusal to continue taking methylphenidate, it was decided to start using turmeric oil in a dosage of 36 mg/day.
The turmeric oil and two anticonvulsants (valproic acid and clobazam) were administered to the patient.
Conversely, a cognitive enrichment in the patient's profile was evident. This enhancement was reflected in their academic performance and […] general life development. The patient presented seizures relapse and maintained antiepileptic drugs administration.

[3] = tested on: patient with Guillain-Barré syndrome, flaccid tetraplegia; assay: Clinical course and muscle strength, Case 5; conditions: after three weeks of hospitalization, before turmeric oil
From the text: Patient. They were the child of non-consanguineous parents. Parents referred that one day the patient woke up but could not walk. Noteworthy, the day before this event, they received a COVID vaccine. The patient was taken to a hospital and evaluated in the emergency room. Demyelinating motor polyradiculoneuropathy of severe degree with distal predominance, more significant in lower extremities was reported after performing electromyography and nerve conduction velocity analysis. On the third day at the hospital, the patient lost walking, sitting, neck control and lower and upper extremities mobility. No mechanical ventilation was required.
Thus, the patient was prostrate, and it was recommended to start administering turmeric oil in a dose of 21.6 mg per day.

CC[C@@H](C(N)=O)N1CCCC1=O [levetiracetam]
seizures [1]: not controlled

COC(=O)C(c1ccccc1)C1CCCCN1 (stereo not drawn) [prolonged-release methylphenidate, methylphenidate]
result of methylphenidate treatment [2]: poor results

gamma globulin
condition at discharge [3]: no improvement
